The record followed here is paper PMC12508057, “Discovery of ETI41 and ETI60: novel selective endosomal Toll-like receptor inhibitors for the treatment of autoimmune diseases” (Experimental & Molecular Medicine, 2025).

Read-outs that look alike come from different tables or passages of the source. Some results are limits rather than exact numbers.

One series addresses T1, human TLR7 (Homo sapiens, UniProt Q9NYK1).
T1 construct: Fc; purchased R&D Systems
T1 sequence (Q9NYK1 27-839 limits assumed): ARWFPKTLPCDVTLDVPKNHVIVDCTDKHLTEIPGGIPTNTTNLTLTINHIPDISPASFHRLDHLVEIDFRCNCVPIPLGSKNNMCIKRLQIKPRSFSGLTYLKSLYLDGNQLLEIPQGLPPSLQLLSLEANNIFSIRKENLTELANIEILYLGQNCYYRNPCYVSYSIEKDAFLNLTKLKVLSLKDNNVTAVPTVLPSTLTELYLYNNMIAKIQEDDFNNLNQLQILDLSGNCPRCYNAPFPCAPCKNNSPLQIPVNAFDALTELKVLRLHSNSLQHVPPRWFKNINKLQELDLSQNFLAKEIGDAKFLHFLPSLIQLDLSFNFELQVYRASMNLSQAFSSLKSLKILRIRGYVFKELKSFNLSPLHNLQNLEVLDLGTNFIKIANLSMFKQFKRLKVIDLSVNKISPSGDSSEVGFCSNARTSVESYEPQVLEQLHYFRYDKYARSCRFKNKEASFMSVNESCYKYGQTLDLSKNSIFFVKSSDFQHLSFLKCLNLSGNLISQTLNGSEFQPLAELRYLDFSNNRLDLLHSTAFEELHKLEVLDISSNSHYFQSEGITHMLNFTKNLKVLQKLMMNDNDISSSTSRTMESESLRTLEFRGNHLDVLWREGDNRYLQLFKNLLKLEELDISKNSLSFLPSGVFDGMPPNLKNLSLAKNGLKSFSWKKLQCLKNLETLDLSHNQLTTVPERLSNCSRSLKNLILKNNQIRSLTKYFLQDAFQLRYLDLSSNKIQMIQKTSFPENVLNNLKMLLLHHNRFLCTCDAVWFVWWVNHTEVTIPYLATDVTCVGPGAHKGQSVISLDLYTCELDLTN
The series is described as follows: SPR binding to TLR7. Particulars: for SPR binding to TLR7: neutral pH 7.4 (early endosome). The protocol:
Surface plasmon resonance (SPR) analysis was conducted using an SR7500DC SPR System (Reichert) with a CMDH chip for human TLR7 and murine TLR9 (R&D Systems) and a Biacore T200 platform (Cytiva) with a CM5 chip for TLR9–ODN binding. The running buffer contained 0.5% DMSO and phosphate-buffered saline, and 50 mM NaOH was used for regeneration. ETI series compounds were serially diluted from 500 μM and tested for binding affinity. Binding curves were analyzed using Scrubber2 and Biacore T200 evaluation softwares. The dissociation constants (KD) were calculated as KD = kd/ka.
SPR confirmed the binding mechanisms of ETI41 and ETI60 with TLR7 and TLR9, respectively, under three conditions: (a) early endosome (pH 7.4), (b) late endosome without CpG (pH 5.5) and (c) late endosome with CpG (pH 5.5). (a) Both ETI41 and ETI60 were measured for parameters indicating binding affinity, including the KD value presented in Table 3, and were further analyzed under conditions (b) and (c), depending on the presence or absence of ligand, to explain the binding mechanism occurring in TLR9.
(SPR reads the build-up and loss of mass on a sensor chip optically.)

The test system of a further series is Daudi cells. Briefly: Water-soluble tetrazolium assay, cell viability in Daudi. It counts as cell-based. The protocol: Daudi cells were seeded into 96-well plates at a density of 5 × 10^4 cells per well.
One-tailed paired Student’s t-tests were performed using Microsoft Excel (Microsoft). […] The therapeutic index was calculated as […]. Animal experimental results are expressed as mean ± standard deviation and analyzed using SPSS v.20 (IBM SPSS Statistics). Homogeneity of variance was assessed using Levene’s test.
Data are from at least three independent experiments (n = 3) and statistical differences between the induced case and other cases were analyzed and verified using a one-tailed Student’s t-test (*P < 0.05, **P < 0.01, ***P < 0.001).

`Cc1cc2c(N)c3c(nc2n1CCCN(C)C)CCCCCC3` [ETI41]: at human TLR7, the Kd worked out at 0.54 mM and the “SPR binding to TLR7” value was “clear binding affinity”. On human TLR7 (Fc-TLR7, pH 7.4), this compound came in with a kd of 0.21 s⁻¹. Moreover, the kon on human TLR7 (pH 7.4, read-out: ka) was 400 M⁻¹ s⁻¹. Also, the “Cell viability (LD50), cytotoxicity” value with Daudi cells is recorded as >200,000 nM.

As to `COc1ccc2c3c(N)c4c(nc3n(CCCN(C)C)c2c1)CCCC4` [ETI60], the kd at human TLR7 (Fc-TLR7, pH 7.4) is 0.124 s⁻¹. At human TLR7 (Fc-TLR7, pH 7.4, read-out: KD), the Kd was determined as 6 mM. The kon at human TLR7 (Fc-TLR7, pH 7.4, read-out: ka) amounted to 20 M⁻¹ s⁻¹. Also, the “SPR binding to TLR7” value on human TLR7 was “clear binding affinity”. In addition, in the series on Daudi cells, the “Cell viability (LD50), cytotoxicity” value was 38,410 nM.

As usually defined, the Kd is the constant that tells how readily two partners part at equilibrium.
